Patent US20080221205A1, “FURAN DERIVATIVES FOR PREVENTING AND CURING OSTEOPOROSIS AND PHARMACEUTICAL COMPOSITIONS CONTAINING THE SAME” (priority 2002, published 2008)

System: osteoclast formation
Assay: Inhibition rate of furan derivatives versus osteoclast formation (TRAP staining)
Assay type: cell-based, mice
Settings: TRAP-positive multinucleated cells, untreated control set as 100%
Description: First, bone marrow cells were isolated, as follow. After sacrificing 7-9 week female mice by cervical dislocation, femur and tibia were excised aseptically while removing attached soft tissues. After cutting both ends of long bones, 1 ml of an enzyme solution, containing 0.1% collagenase (Gibco), 0.05% trypsin and 0.5 mM EDTA (Gibco), was injected to the bone marrow cavity at one end using a syringe with a 26-guage needle, and bone marrow was then collected. After shaking the recovered bone marrow for 30 min, bone marrow cells were collected, and cultured in α-minimum essential medium (α-MEM) supplemented with 10% FBS for 24 hrs. Then, non-adherent cells were collected, which are osteoclast pregenitors, aliquotted onto culture plates at a density of 2×10^5 cells per well, and cultured for 8 days in α-MEM supplemented with 20 ng/ml of macrophage-colony stimulating factor (M-CSF, Peprotech, USA) and 30 ng/ml RANKL (Peprotech, USA). During the 8 days of culturing, the cells were treated with the Compound 1. Thereafter, osteoclast formation was investigated by fixing the cultured cells and then carrying out TRAP staining, as described in the following Experimental Example 2.2. In addition, resorption activity of osteoclasts was investigated by measuring the absorption area after removing osteoclasts in cultures in calcium phosphate-coated plates, as described in Experimental Example 2.3, below.
After cell culture, the adherent cells were washed with PBS, and TRAP staining was performed, as follows. After being fixed with citrate-acetate-formaldehyde for 5 min, the cells were incubated for 1 hr in acetate buffer (prewarmed at 37° C., pH 5.0) containing naphthol AS-BI phosphate, fast Garnet GBC and 7 mM tartrate buffer (pH 5.0). TRAP-positive multinucleated cells having 3 or more nuclei were considered as osteoclasts.
Osteoclast pregenitor cells were isolated, and their differentiation to mature osteoclasts was induced, according to the same method as in the Experimental Example 2-1, while treated with each of the furan derivatives of the present invention. According to the same method as in the Experimental Example 2-2, TRAP staining performed, and TRAP-positive multinucleated cells were counted. An inhibition rate of each furan derivative against osteoclast formation was expressed as percentage, wherein the number of stained cells in a control not treated the furan derivative was arbitrarily set as 100% (Tables 14 to 16).

| SMILES | Inhibition rate against osteoclast formation, % (0.1 μM) | Inhibition rate against osteoclast formation, % (10 μM) | Inhibition rate against osteoclast formation, % (1 μM) |
| --- | --- | --- | --- |
| O=Cc1ccc(COC(=O)Cc2ccccc2)o1 [Compound 32] | 0% | 50% |  |
| O=Cc1ccc(COC(=O)Cc2c(F)cccc2F)o1 [Compound 33] | 0% | 50% | 3.3% |
| O=Cc1ccc(COC(=O)Cc2c(F)cccc2Cl)o1 [Compound 34] | 0% |  |  |
| O=Cc1ccc(COC(=O)Cc2cccc(Cl)c2)o1 [Compound 35] | 0% |  |  |
| O=Cc1ccc(COC(=O)Cc2ccsc2)o1 [Compound 36] | 0% | 30% |  |
| O=Cc1ccc(COC(=O)Cc2cccc(F)c2)o1 [Compound 37] | 0% |  | 10% |
| O=Cc1ccc(COC(=O)Cc2ccc3ccccc3c2)o1 [Compound 38] | 0% | 20% |  |
| O=Cc1ccc(COC(=O)Cc2ccc(F)cc2F)o1 [Compound 39] | 0% |  | 10% |
| O=Cc1ccc(COC(=O)C(c2ccccc2)(c2ccccc2)c2ccccc2)o1 [Compound 40] | 0% |  |  |
| COc1cccc(F)c1CC(=O)OCc1ccc(C=O)o1 [Compound 41] | 0% |  |  |
| COc1ccc(F)c(CC(=O)OCc2ccc(C=O)o2)c1 [Compound 42] | 0% |  |  |
| O=Cc1ccc(COC(=O)Nc2cccc(Cl)c2)o1 [Compound 49] | 0% | 0% | 10% |
| O=Cc1ccc(COC(=O)Nc2ccc(Br)cc2)o1 [Compound 50] | 0% | 0% | 10% |
| CCCCNC(=O)OCc1ccc(C=O)o1 [Compound 53] | 0% |  | 10% |
| O=Cc1ccc(COC(=O)Nc2ccc(Cl)c(Cl)c2)o1 [Compound 54] | 0% | 10% | 0% |
| O=Cc1ccc(COC(=O)Nc2ccccc2Cl)o1 [Compound 55] | 0% | 20% | 20% |
| C=CCc1ccc(OCc2ccc(C(=O)OC)o2)c(OC)c1 [Compound 59] | 0% |  | 0% |
| COC(=O)c1ccc(COc2ccc(Cl)cc2Cl)o1 [Compound 60] | 0% |  | 0% |
| COC(=O)c1ccc(COc2ccccc2Cl)o1 [Compound 61] | 0% |  | 0% |
| COC(=O)c1ccc(COc2ccc(Cl)cc2[N+](=O)[O-])o1 [Compound 66] | 0% |  | 0% |
| COC(=O)c1ccc(COc2ccccc2[N+](=O)[O-])o1 [Compound 67] | 0% |  | 0% |
| COC(=O)c1ccc(COc2cc(C)ccc2C(C)C)o1 [Compound 68] | 0% | 5.62% | 0% |
| COC(=O)c1ccc(COc2ccc3c(c2)CCC3)o1 [Compound 70] | 0% |  | 0% |
| COC(=O)c1ccc(COc2ccc(Cl)c(C)c2)o1 [Compound 75] | 0% | 0.78% | 0% |
| COC(=O)c1ccc(COc2ccc(I)cc2)o1 [Compound 79] | 0% |  | 0% |
| COC(=O)c1ccc(COc2ccc(Cl)cc2)o1 [Compound 80] | 0% |  | 0% |

| SMILES | Inhibition rate against osteoclast formation, % (0.1 μM) | Inhibition rate against osteoclast formation, % (10 μM) | Inhibition rate against osteoclast formation, % (1 μM) |
| --- | --- | --- | --- |
| COC(=O)c1ccc(CN(C)C)o1 [Compound 85] | 0% |  | 0% |
| COC(=O)c1ccc(CNc2ccccc2)o1 [Compound 89] | 0% |  | 0% |
| COC(=O)c1ccc(CNC(C)(C)C)o1 [Compound 91] | 0% |  | 0% |
| COc1ccccc1OCc1ccc(C(=O)OC(C)C)o1 [Compound 94] | 0% | 5.9% | 0% |
| CC(C)OC(=O)c1ccc(COc2cc(Cl)ccc2Cl)o1 [Compound 95] | 0% | 0.97% | 0% |
| COc1ccccc1OCc1ccc(C(=O)Oc2ccc(Cl)cc2)o1 [Compound 97] | 0% |  | 0% |
| O=C(Oc1ccccc1)c1ccc(COc2ccccc2Cl)o1 [Compound 98] | 0% |  | 0% |
| CCCc1ccc(OCc2ccc(C(=O)O)o2)cc1 [Compound 100] | 0% |  | 0% |
| O=C(O)c1ccc(COc2ccc(F)cc2)o1 [Compound 102] | 0% |  | 0% |
| O=C(O)c1ccc(COc2ccc(Br)cc2)o1 [Compound 103] | 0% |  | 0% |
| O=C(O)c1ccc(COc2ccccc2Cl)o1 [Compound 107] | 0% | 32% | 0% |
| O=C(O)c1ccc(COc2ccccc2Br)o1 [Compound 108] | 0% |  | 0% |
| O=C(O)c1ccc(COc2cc(Cl)ccc2Cl)o1 [Compound 109] | 0% |  | 0% |
| O=C(O)c1ccc(COc2cccc(Cl)c2)o1 [Compound 112] | 0% |  | 0% |
| CC(C)c1ccc(OCc2ccc(C(=O)O)o2)cc1 [Compound 114] | 0% | 4.2% | 0% |
| O=C(O)c1ccc(COc2cccc3ccccc23)o1 [Compound 117] | 0% |  | 0% |
| Cc1cc(OCc2ccc(C(=O)O)o2)ccc1Cl [Compound 119] | 0% |  | 0% |
| O=C(O)c1ccc(CSCc2ccccc2)o1 [Compound 120] | 0% |  | 0% |
| CCC(C)NC(=O)c1ccc(COc2ccc(I)cc2)o1 (stereo not drawn) [Compound 121] | 0% |  | 0% |
| CCN(CC)C(=O)c1ccc(COc2ccc(Cl)c(C)c2)o1 [Compound 123] | 0% | 100% | 6.9% |
| CC1CCN(C(=O)c2ccc(COc3cc(Cl)ccc3Cl)o2)CC1 [Compound 124] | 0% |  | 0% |
| CC(C)(C)NC(=O)c1ccc(COCC(F)(F)F)o1 [Compound 127] | 0% |  | 0% |
| O=C(c1ccc(COc2ccccc2Br)o1)N1CCCCCC1 [Compound 128] |  |  | 0% |
| CC(C)(C)NC(=O)c1ccc(COc2ccccc2Br)o1 [Compound 129] | 0% | 2.2% | 0% |
| CC(C)NC(=O)c1ccc(CNc2cc(Cl)ccc2Cl)o1 [Compound 130] | 0% |  | 0% |
| Cc1cc(OCc2ccc(C(=O)N3CCOCC3)o2)ccc1Cl [Compound 132] | 0% |  | 0% |
